Source: patent US20220249525A1, “Fatty Acid Compounds for Prevention and Treatment of Neurodegenerative Disorders” (T OMEGA AS, priority 2019, published 2022)

How the values were obtained:
Assay type in all cases: cell-based
[1] = test system: SH-SY5Y cells; test: WST-1 cell viability assay in SH-SY5Y cells; details: 4 days, 31-125 μM
Procedure: (§1) The fatty acids (FAs) TTA, tr-TTA, N-TTA, tr-N-TTA and (PA) were complexed with FBS following the same procedure, differing only in final stock concentration, due to variation in solubility. Approximately 0.07 g of FA was weighed in a 10 ml sterile serum tube (BD Vacutainer®, catalog no. 368430) and dissolved in sterile filtrated 0.1 M sodium hydroxide (NaOH) of a volume giving 25 mM FA, controls without FA were made, containing only NaOH and FBS. A syringe (Sterican®, catalog no. 4657577) was pierced through the rubber cap of the serum tube, and the tube was placed in an 80° C. water bath until the FAs were dissolved. Each FA-solution was then diluted in inactivated FBS to stock concentration 1 mM (N-TTA, tr-N-TTA), and 2 mM by adding the FA to a volume of 100% FBS after heating the FBS to 45° C. in a water bath. The transfer of FA to FBS had to be executed controlled and swiftly to avoid the formation of precipitates. If any precipitates in the solution were visible, the FA and a new volume of FBS were reheated, and the procedure performed again. Following successful complexation, the stock solutions were stored at −20° C. in 1 ml aliquots (CryoPure tube, Sarstedt AG & Co, Nümbrecht, Germany).
(§2) The WST-1 cell proliferation assay was performed using the kit from Roche (table 4.2.) and its accompanying procedure (version 16, February 2011) (134). The number of cells seeded to each well in the 96-well plates (Corning Inc., catalog no. 353072) varied depending on the treatment time and cell type (table 3.).
(§3) Cell suspension and medium were then transferred to each well in a volume of 100 μl in total. Subsequently, the plates were incubated for 24 hours to make the cells settle. The next day, 100 μl with FA complexed with FBS or diluted in DMSO was added to row A or B in the 96-well plate to give a defined concentration. The solution was then mixed with a pipette, and 100 μl of the medium with FA was transferred to the next well in the same column, mixed by pipetting up and down at least five times before 100 μl was transferred again to the next well in the column. This procedure was repeated until the second last, or last well in each column was reached, making a series of two-fold dilution of the FAs in the cell medium. Two parallels were performed for every treatment per run. After the addition of FAs, the plates were incubated for 24-96 hours depending on the length of the treatment.
Following the FA-treatment, the cells were studied under a microscope to ensure that visual observations matched the measured absorbance and cell activity in the assay. Subsequently, 10 μl WST-1 reagent was added to each well, and the plates were incubated for 3 hours. Due to high activity in the HuH-7 cell line, the WST-1 reagent was diluted 1:1 with PBS. Before the measurement of absorbance, the plates were placed on a shaker for 1 minute ensuring thoroughly mixing of the wells. The plates were then put straight into the spectrophotometer (SpectraMax Plus 384 Microplate Reader, Molecular Devices Corporation, San Jose, Calif., USA) to perform the measurements. […] The absorbance of the samples was measured at 450 nm, and the reference wavelength was set to 650 nm. For each well, the measured absorption at 650 nm was subtracted from the absorption at 450 nm. The measured absorbance for the treated cells was then compared to the controls (blank) containing only cells and growth medium.

[2] = test system: HCC827 cells; test: Mitochondria respiration assay (OCR, extracellular flux) in HCC827 cells
Procedure: (§4) Non-small cell lung cancer cells, HCC827 (ATCC) were cultured in RPMI-1640 Glutamax medium (Sigma-Aldrich St. Louis, Mo., USA), under conventional culture conditions. Media was supplemented with 10% Fetal Bovine Serum (FBS), 1% glutamine and 1% streptomycin/penicillin (Sigma-Aldrich). HeLaNRF1/c4 reporter cells were cultured in Dulbecco's Modified Eagle's Medium (DMEM) supplemented with 10% FBS, 2 mM L-Glutamine, 100 u/ml penicillin/streptomycin (Sigma-Aldrich,). Incubation was done at 37° C. in 5% CO2.
Mitochondria function was analyzed by measuring oxygen consumption rate (OCR) by extracellular flux analysis in a Seahorse XFe96 instrument (Agilent Seahorse XF Technologies). The measurements were performed in DADA basic media without phenol red, supplemented with L-glutamine (2 mM), pyruvate (2 mM), and sodium chloride, NaCl (32 mM) (Sigma-Aldrich). Respiratory rates were measured following sequential additions of glucose (10 mM), oligomycin, carbonyl cyanide m-chlorophenyl hydrazine (CCCP) and a mixture of rotenone (1 μM) and antimycin A (1 μM). Before carrying out the measurements for each cell model, optimizations were done for; cell number, CCCP, and oligomycin concentrations. For the HCC 827 cell model optimal conditions were; 30,000 cells/well, 0.5 μM CCCP, and 3 μM Oligomycin; and in HeLaNRF1/c4 reporter cell model; 20,000 cells/well, 1 μM CCCP and 3 μM Oligomycin. The OCR measured initially (before any additions) represented the rate ‘basal respiration.’ The addition of ATP synthase inhibitor oligomycin provided oxygen consumption independent of ATP production (‘leak activity’). Maximal respiration (also referred to as ‘respiratory capacity’) was measured upon addition of the uncoupler CCCP. […] After the extracellular flux analysis the analysis plates were washed with Phosphate Buffered Saline (PBS) and frozen at −80° C. The BCA assay (Pierce BCA protein assay kit, Thermo Fisher Scientific, Waltham, Mass. USA) was employed to measure the protein content in the wells. To evaluate the effects of the different treatments, the respiratory rates from compound-treated wells were normalized to protein content, and calculated as percentage of the average respiratory rate of the DMSO-treated control wells. All treatments were performed with 6-8 replicate wells.

[3] = test system: HCC827 cells; test: Resazurin conversion cell viability/proliferation assay in HCC827 cells
Procedure: as §4
Cell viability/proliferation was determined by the resazurin conversion assay. A total of 4000 cells were seeded in each of the 96-well plates in 100 μl of medium. After 3 hours of incubation, 100 μl of fresh medium with respective concentration of the desired compound or controls were added. Resazurin solution (Sigma-Aldrich) was added (10%, v/v in PBS) after 1 or 3 day treatment, followed by 3 hour incubation at 37° C. and 5% CO2. Resazurin fluorescence (excitation, 540 nm; emission, 590 nm) was measured and measurements were corrected for background signals. […] Relative viability was calculated from percent fluorescence relative to DMSO-treated control wells.

[4] = test system: HuH-7 cells; test: WST-1 cell viability assay in HuH-7 cells
Procedure: as §1, §2, §3
Following the FA-treatment, the cells were studied under a microscope to ensure that visual observations matched the measured absorbance and cell activity in the assay. Subsequently, 10 μl WST-1 reagent was added to each well, and the plates were incubated for 3 hours. Due to high activity in the HuH-7 cell line, the WST-1 reagent was diluted 1:1 with PBS. Before the measurement of absorbance, the plates were placed on a shaker for 1 minute ensuring thoroughly mixing of the wells. The plates were then put straight into the spectrophotometer (SpectraMax Plus 384 Microplate Reader, Molecular Devices Corporation, San Jose, Calif., USA) to perform the measurements. The accompanying software was used (SoftMax Pro, Molecular Devices Corporation, San Jose, Calif., USA) to obtain the results. The absorbance of the samples was measured at 450 nm, and the reference wavelength was set to 650 nm. For each well, the measured absorption at 650 nm was subtracted from the absorption at 450 nm. The measured absorbance for the treated cells was then compared to the controls (blank) containing only cells and growth medium.

CCCCCCCCCCCCCCNCC(=O)O [N-TTA, N-tetradecylglycine]
WST-1 activity compared to untreated cells [1]: about 110% | leak respiration after oligomycin ([2]; 100 μM TTA, 200 μM 2-triple TTA, 30 μM TDG): significantly increased | basal respiratory rate (OCR) ([2]; compared to control): decreased in a dose-dependent manner | leak respiration after oligomycin ([2]; higher concentrations): reduced leak respiration | dose-dependent pattern of antiproliferative effects ([3]; HCC827 cells, three different concentrations): dose-dependent pattern of antiproliferative effects was found | overall effects on cell viability and mitochondrial function (summary) ([3]; cultured cells, relatively high dosage): cytotoxic effects | WST-1 activity compared to untreated cells ([4]; 2 days, 16 μM, complexed with FBS): 116% | WST-1 activity compared to no treatment ([4]; 2 days, 125-250 μM): 50-60% | WST-1 activity ([4]; 4 days, 1000 μM): The same result was true
